According to patent US4001238A, “1,3,4-Oxadiazole amides” (Bristol-Myers Company, priority 1976, dated 1977):

What was measured:
α-adrenergic receptor [1] = test: Anesthetized dog assay for α-adrenergic blocking agents (inhibition of norepinephrine induced pressor responses); format: in vivo
Experimental: (§1) In Table 1, antihypertensive activity was determined by oral administration to spontaneous hypertensive rats, and the in vitro and in vivo α-adrenergic receptor blocking effect was determined by tests described following Table 1. In the in vitro test, the inhibition by BL-5111 of norepinephrine induced contractions of rat seminal vesicles was measured; and in the in vivo test, the inhibition by BL-5111 of norepinephrine induced pressor responses in anesthetized dogs was measured.
Nash, C. B., Pharmacological Research Communications, 4:423, (1969) and Maxwell, R. A., Drill's Pharmacology in Medicine, (1971) p. 683 have shown that in anesthetized dogs α-adrenergic blocking agents antagonize the blood pressure elevating effects of intravenous norepinephrine. Thus, blood pressure responses to norepinephrine (NE) in anesthetized dogs was used as a comparative assay for α-adrenergic receptor blocking properties of drugs.
Experiments were done on mongrel dogs anesthetized with sodium pentobarbital, 30 mg./kg. iv. The left femoral artery was cannulated to record aortic blood pressure and a femoral vein was cannulated for administration of drugs. All animals underwent a bilateral vagotomy. A norepinephrine dose-response curve was obtained by administering increasing doses of iv. norepinephrine (0.01 - 1 μg/kg). […] Approximately 30 minutes later a dose-response curve was again established for iv. norepinephrine (0.01-10 μg/kg).

α-adrenergic receptor [2] = molecular target: T1, α-adrenergic receptor (Rattus norvegicus, UniProt P43140); test: Isolated rat seminal vesicle assay (inhibition of norepinephrine induced contractions; α-adrenergic receptor blocking effect in vitro); conditions: for decrease in the sensitivity of isolated rat seminal vesicles to the stimulant activity of NE: 10 nanograms/ml; for NE ED50 with 95% Conf. Limits: NE ED50 in presence of test compound 10 nano/ml, control 0.89 (0.84-0.94)
T1 construct: Seminal vesicles were removed and transfered to a shallow dish containing modified Tyrode's solution; from tissue; host or cells: isolated seminal vesicle of male Long Evans rats
T1 sequence (P43140 1-466): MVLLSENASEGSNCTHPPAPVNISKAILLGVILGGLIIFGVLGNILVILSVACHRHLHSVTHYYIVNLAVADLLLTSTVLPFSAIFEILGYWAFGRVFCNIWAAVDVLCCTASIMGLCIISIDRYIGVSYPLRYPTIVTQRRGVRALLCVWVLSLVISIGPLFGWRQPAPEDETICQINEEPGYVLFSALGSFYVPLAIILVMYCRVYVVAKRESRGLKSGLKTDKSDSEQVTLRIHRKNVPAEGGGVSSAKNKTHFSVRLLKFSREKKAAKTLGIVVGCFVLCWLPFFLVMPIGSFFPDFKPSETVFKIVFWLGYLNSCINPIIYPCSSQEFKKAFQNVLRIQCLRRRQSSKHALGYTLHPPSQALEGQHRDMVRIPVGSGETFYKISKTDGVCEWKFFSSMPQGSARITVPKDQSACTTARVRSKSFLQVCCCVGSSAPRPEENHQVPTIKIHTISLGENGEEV
Experimental: as §1
Dangan et al, Int. […] Lietch et al, Brit.
Male Long Evans rats weighing approximately 300 g. were sacrificed by a sharp blow on the head. Seminal vesicles were removed and transfered to a shallow dish containing modified Tyrode's solution. The vesicles were emptied of their contents by squeezing them gently with a pair of forceps. Silk thread (4-0) was attached to both ends of the vesicle and it was suspended in a 20 ml. muscle chamber containing modified oxygenated Tyrode's solution (g./liter: NaCl 8, KCl 0.2, CaCl2 0.26, NaHCO3 1, Na2 HPO4 0.0575, glucose 0.5 and MgCl2 0.02). The bathing fluid was maintained at 37° C. with a thermostatically controlled isolated organ tissue bath. Contractions were recorded isometrically by means of a force displacement transducer and recordings were made with a Beckman RP Dynograph. Norepinephrine (NE) was added to the muscle chamber in volumes ranging from 0.1 to 0.4 ml. with a one ml. syringe attached to a 3 inch 20 gauge needle. NE and test compounds were dissolved in deionized water.
NE dose response curves were obtained alone and in the presence of test compounds. NE was allowed to remain in contact with the strip until a maximal contraction was obtained. The strip was then washed with the perfusion fluid for 15-30 seconds and the preparation was allowed to return to base line before a subsequent dose of NE was given. Increasing amounts of NE were injected into the bath in the same manner until a complete dose response was obtained.
The seminal vesicles used to obtain the control NE dose response were discarded and new preparations were placed in the tissue bath for evaluation of the test compound. The test compound was added directly to the perfusion fluid (10 nanograms/ml.) and the strips were allowed to remain in contact with the bathing media for at least 10 minutes before the NE dose response was determined.
ED50 values for NE were obtained by regression analysis as described by Finney, Probit. Analysis, 2d Ed., Cambridge (1964). A minimum of 4 strips and at least 4 doses were employed to calculate the regression lines. The ED50 value is defined as the concentration of NE which produces a contraction equal to 50% of the maximal contraction.

[3] = tested on: spontaneous hypertensive rats; test: Antihypertensive activity, oral administration to spontaneous hypertensive rats; format: in vivo, rat; conditions: for ED50: Rattus norvegicus, read-out: Antihypertensive Activity ED50 mm Hg
Experimental: In Table 1, antihypertensive activity was determined by oral administration to spontaneous hypertensive rats, and the in vitro and in vivo α-adrenergic receptor blocking effect was determined by tests described following Table 1.

in vivo = conditions: mouse, IV, mice
Solubility in water = format: physicochemical; conditions: in words
Experimental: Compound I can exist in two polymorphic forms. In an earlier experiment similar to Experiment E with the exception that an excess of piperazine hydrobromide was used, a water soluble form (Isomorph A) of Compound I having a M.P. of 224°-228° C. was obtained. This product was recrystallized from nitromethane to give an analytical sample of Isomorph A having a M.P. of 227°-229° C.
A 200 mg. sample of Isomorph A was dissolved in 10 ml. of water at 20° C. The solution was heated at 60° C. for 3 minutes, then cooled to 35° C. and filtered. […] This product was termed Isomorph B of Compound I.

α-adrenergic receptor [4] = conditions: in words; literature; cited from earlier work
vascular smooth muscle = conditions: in words; literature; cited from earlier work
humans [5] = conditions: clinical, in words; literature; cited from earlier work
humans [6] = test: Clinical use as antihypertensive agent (literature); format: in vivo, human; conditions: lower end of clinical daily dosage range (trimazosin 150 to 500 mg, prazosin 1.5 to 15 mg)
[7] = 10 nano/ml, isolated rat seminal vesicles
[8] = 1 mg/kg, oral, spontaneous hypertensive rats
[9] = 3 mg/kg, oral, spontaneous hypertensive rats
[10] = 10 mg/kg, oral, spontaneous hypertensive rats
[11] = oral, spontaneous hypertensive rats

Row | Structure (SMILES) | Percent Change From Control (NE ED50) (α-adrenergic receptor [2]; [7]) [%] | decrease in the sensitivity of isolated rat seminal vesicles to the stimulant activity of NE (α-adrenergic receptor [2]; in words) | NE ED50 with 95% Conf. Limits (α-adrenergic receptor [2]; isolated rat seminal vesicles) | % Blood Pressure Change [3, 8] [%] | % Blood Pressure Change [3, 9] [%] | % Blood Pressure Change [3, 10] [%] | ED50 [3, 11] [mg/kg] | solubility in water (Solubility in water) | also measured
1 | COc1cc2nc(N3CCN(C(=O)c4nnc(SC)o4)CC3)nc(N)c2cc1OC.Cl [BL-5111, 4-Amino-6,7-dimethoxy-2-[4-(5-methylthio-1,3,4-oxadiazole-2-carbonyl)-piperazin-1-yl]-quinazoline hydrochloride] | 4.5 | essentially inactive | 0.93 (0.80-1.08) μg/ml | -19 | -26 | -41 | 2.3 |  | times less active than prazosin in causing α-adrenergic blockade (α-adrenergic receptor [1]; 3 mg/kg iv, anesthetized dogs): approximately 30 times; α-Adrenergic Receptor Blocking Effect, In Vivo Activity Ratio (α-adrenergic receptor [1]; Table 1, relative to prazosin, intravenous, anesthetized dogs): 0.04; Activity Ratio Relative to Prazosin (α-adrenergic receptor [1]; Table III, 3 mg/kg iv, anesthetized dogs): 0.036; peripheral α-adrenergic blocking properties (α-adrenergic receptor [1]; in words, in vitro and in vivo tests together (Table 1)): little or none of the peripheral α-adrenergic blocking properties shown by prazosin; Activity Ratio Relative to Prazosin (α-adrenergic receptor [2]; Table II, 10 nano/ml, isolated rat seminal vesicles): 0.008; α-adrenergic blocking activity relative to prazosin (α-adrenergic receptor [2]; conclusion from isolated rat seminal vesicles, in words): less than one percent; antihypertensive potency compared to prazosin ([3]; in words): comparable antihypertensive potency to prazosin; Antihypertensive Activity Ratio ([3]; relative to prazosin, oral, spontaneous hypertensive rats): 0.91; LD50 (in vivo): 45.7 mg/kg
2 | COc1cc2nc(N3CCNCC3)nc(N)c2cc1OC [Isomorph A, 4-amino-6,7-dimethoxy-2-(1-piperazinyl)quinazoline] |  |  |  |  |  |  |  | water soluble | 
3 | COc1cc2nc(N3CCNCC3)nc(N)c2cc1OC [Isomorph B, 4-amino-6,7-dimethoxy-2-(1-piperazinyl)quinazoline] |  |  |  |  |  |  |  | would not redissolve in boiling water | 
4 | COc1cc2nc(N3CCN(C(=O)c4ccco4)CC3)nc(N)c2cc1OC [Prazosin, 2-[4-(2-furoyl)-piperazin-1-yl]-4-amino-6,7-dimethoxyquinazoline, reference compound] | 578 | nearly a six fold decrease | 6.03 (5.30-6.81) μg/ml | -14 | -29 | -42 | 2.1 |  | peripheral α-adrenergic receptor blockade (α-adrenergic receptor [4]): functional peripheral α-adrenergic receptor blockade; vasodilation effect on vascular smooth muscle (vascular smooth muscle): direct peripheral vasodilation effect on vascular smooth muscle
5 | COc1cc2c(N)nc(N3CCN(C(=O)OCC(C)(C)O)CC3)nc2c(OC)c1OC [Trimazosin] |  |  |  |  |  |  |  |  | activity in humans as an antihypertensive agent (humans [5]): active in humans as an antihypertensive agent; potency relative to prazosin (fold weaker) (humans [6]): 100 fold
